Each block holds one compound with its values, some of them ahead of it.
What was measured:
Format in all cases: cell-based
[1] = target: T1, TAS2R16 (Homo sapiens, UniProt Q9NYV7); assay: Fluo-4 calcium assay, cells expressing TAS2R16 (control of antagonist specificity)
T1 construct: The full length gene of human TAS2R44 was amplified by polymerase chain reaction (PCR) using gene-specific primers that span the entire coding region; RSS tag (first 45 amino acids of rat somatostatin receptor subtype 3) (N); expressed in transfected cells; host or cells: HEK293T cells expressing Gα16-gustducin44
T1 sequence (Q9NYV7 1-291): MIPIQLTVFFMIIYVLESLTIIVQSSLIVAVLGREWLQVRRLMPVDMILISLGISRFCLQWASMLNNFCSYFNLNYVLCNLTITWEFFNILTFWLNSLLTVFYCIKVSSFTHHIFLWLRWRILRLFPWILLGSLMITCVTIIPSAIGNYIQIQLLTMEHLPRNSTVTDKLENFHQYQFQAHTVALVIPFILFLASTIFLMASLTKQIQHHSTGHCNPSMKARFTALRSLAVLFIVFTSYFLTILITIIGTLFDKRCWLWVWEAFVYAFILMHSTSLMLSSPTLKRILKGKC
Method: (§1) At day 0, the HEK293T cell line expressing Gα16-gustducin44 and a TAS2R bitter taste receptor formed as described in examples 2b or 2c was seeded in antibiotic-free growth medium (standard DMEM with 10% (v/v) heat-inactivated fetal bovine serum, 2 mM L-glutamine[…]) into black wall/clear bottom 96-well plates, coated with poly(ethylenimine) (0.005% v/v) at a concentration of 15,000 cells per well and incubated for 48 hours in humidified atmosphere (37° C., 5% CO2).
(§2) At the time of the assay, the growth medium was discarded and the cells were in humidified atmosphere (37° C., 5% CO2) for 1 hour with 50 μl of loading buffer consisting of 1.5 μM Fluo-4 AM and […] probenicid (Sigma-Aldrich, St. Louis, Mo., US) in DMEM.
(§3) Afterwards, the 96-well plate was washed 5 times with 100 μl of assay buffer (130 mM NaCl, 5 mM KCl, 10 mM HEPES, 2 mM CaCl2, and 5 mM dextrose, pH 7.4) per well, using an automated plate washer (BioTek). The plate was further incubated for 30 minutes at room temperature in the dark to allow for complete de-esterification of the Fluo-4. Afterwards the plate was washed 5 times with 100 μl of assay buffer per well, and reconstituted with 100 μl of assay buffer per well.
(§4) For assay reading, the plate was placed in a Fluorometric Imaging Plate Reader (FLIPR) (FLIPR-TETRA™, Molecular Devices, Sunnyvale, Calif., US), and receptor activation was initiated by addition of 100 μl of a twofold concentrated agonist stock solution (to give the desired agonist end concentration when added to the 100 microliter assay buffer volume), which was prepared in assay buffer.
(§5) Fluorescence was continuously monitored for 20 seconds to give a signal baseline (averaged to give F0) prior to agonist addition and for 120 seconds after agonist addition. The change in signal divided by F0 gives ΔF/F0 indicated in the table, with ΔF being the maximum signal occurring within the 120 seconds minus the minimum signal (occurring within the 120 seconds after agonist addition.
(§6) All data was collected from at least two independent experiments each carried out in triplicate.
(§7) A concentration-response analysis was performed and EC50 values were calculated by nonlinear regression using the function f(x)=(a−d)/(1+(x/C)^nh)+d; with a=minimum signal, d=maximum signal, nh=hill coefficient, C=EC50, and x=agonist concentration. EC50 is the molar concentration of an agonist which produces 50% of the maximum possible effective response for that agonist.
(§8) The obtained calcium signals were corrected for the response of cells expressing only the G Protein α subunit (Gα16-gustducin44) and normalized to the fluorescence of cells prior to the stimulus using ΔF/F0 (Fmax−Fmin/F0).
All cells were HEK293T cells stably expressing Gα16-gustducin44, or expressing Gα16-gustducin44 and a TAS2R receptor (TAS2R44, TAS2R16).
The method was carried out as described in example 3 subject to the following modifications: The samples were tested with and without test compound A (test cpd A) and the signals were compared. The test compound was dissolved in dimethylsulfoxide (DMSO), and a negative control with equivalent DMSO concentration (0.02%) was performed accordingly to exclude a potential inhibitory effect of the solvent.
As a control of antagonist specificity, the response of an unrelated bitter taste receptor (TAS2R16) to its agonist phenyl-β-glucopyranosides is also detected (see results in table 8 herein below).

[2] = target: T2, TAS2R44 (Homo sapiens, UniProt P59538, L162M); assay: Fluo-4 calcium assay, HEK293T cells expressing Gα16-gustducin44 and TAS2R44
T2 construct: RSS tag (first 45 amino acids of rat somatostatin receptor subtype 3, plus EcoRI site) (N); expressed in transfected cells
T2 sequence (P59538 with tags, fused parts or gaps L162M): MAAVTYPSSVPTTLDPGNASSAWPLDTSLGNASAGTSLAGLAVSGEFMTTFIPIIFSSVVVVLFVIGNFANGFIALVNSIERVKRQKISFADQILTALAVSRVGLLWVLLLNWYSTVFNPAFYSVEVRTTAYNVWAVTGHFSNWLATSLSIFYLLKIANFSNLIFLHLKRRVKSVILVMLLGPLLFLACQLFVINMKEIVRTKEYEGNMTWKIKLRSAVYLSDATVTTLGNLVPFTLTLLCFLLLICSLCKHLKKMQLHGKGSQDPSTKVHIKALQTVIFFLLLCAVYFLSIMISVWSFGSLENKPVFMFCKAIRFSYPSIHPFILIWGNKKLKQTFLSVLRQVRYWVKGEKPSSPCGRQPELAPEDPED
Method: Cell lines that stably expresses a SABR (TAS2R44, TAS2R1, TAS2R10) was generated by transfecting pcDNA3.1Zeo-SABR into HEK293T/Gα16-gustducin 44 cells (both formed as described in example 1). The host cell line HEK-293T is commercially available from the American Tissue Culture Collection (ATCC), ATCC®# CRL-11268.
The expression of TAS2R44 was evaluated by testing for the presence of a functional response to the known TAS2R44 agonist saccharin (as described in WO 2004/029087) in addition to sucralose, which was determined via automated calcium imaging on the FLIPR-TETRA™ (Molecular Devices, Sunnyvale, Calif., US) as described in example 3. One clone was selected resulting in the HEK293T/Gα16-gustducin 44/TAS2R44 cell line.
Fluo-4AM (Invitrogen, Carlsbad, Calif., US) is a fluorescent indicator of intracellular calcium dynamics (change in concentration) and allows monitoring changes in the calcium concentration, particularly an increase in response to receptor activation occurring after agonist exposure.
as §1, §2, §3, §4, §5, §6, §7
The obtained calcium signals were corrected for the response of cells expressing only the G Protein α subunit (Gα16-gustducin44) and normalized to the fluorescence of cells prior to the stimulus using ΔF/F0 (Fmax−Fmin/F0). […]

[3] = test system: cells expressing only Gα16gustducin44 but no TAS2 receptor; assay: Fluo-4 calcium assay, negative control cells without bitter receptor
Method: HEK293T/Gα16-gustducin 44 cells were used; they are formed as described in WO 2004/055048. The host cell line HEK-293T is commercially available from the American Tissue Culture Collection (ATCC), ATCC®# CRL-11268
as §1, §2, §3, §4, §5, §8
To confirm that the cell line formed in example 2c stably expresses the bitter taste receptor TAS2R44, a concentration-response curve for saccharin, a known agonist of TAS2R44, was generated. […] The standard deviation (+/−STD) is also indicated.
As a negative control to determine unspecific signals, each of the applied concentrations of sucralose was applied to cells expressing only Gα16gustducin44.
As a negative control, each agonist and each agonist with the antagonist/test compound (test cpd A) is applied to cells expressing only Gal 6gustducin44 but no TAS2 receptor (see results in table 7 herein below).

P-β-G ΔF/F0 ([1]; P-β-G alone 0.0391 mM): 0.012
P-β-G ΔF/F0 ([1]; P-β-G alone 0.0781 mM): 0.213
P-β-G ΔF/F0 ([1]; P-β-G alone 0.1563 mM): 0.926
P-β-G ΔF/F0 ([1]; P-β-G alone 0.3125 mM): 1.810
P-β-G ΔF/F0 ([1]; P-β-G alone 0.6250 mM): 2.284
P-β-G ΔF/F0 ([1]; P-β-G alone 1.2500 mM): 2.361
P-β-G ΔF/F0 ([1]; P-β-G alone 2.5000 mM): 2.578
P-β-G ΔF/F0 ([1]; P-β-G alone 5.0000 mM): 2.693
P-β-G ΔF/F0 ([1]; P-β-G alone 10.0000 mM): 2.876
EC50 ([1]; agonist P-β-G alone, TAS2R16): 210 ± 20 µM
Compound: OC[C@H]1O[C@@H](Oc2ccccc2)[C@H](O)[C@@H](O)[C@@H]1O [P-β-G, phenyl-β-glucopyranoside]

agonist activity at TAS2R44 (calcium signaling), in words ([2]; cells stably expressing human TAS2R44): not to be agonists for TAS2R44
Compound: COC(=O)[C@H](Cc1ccccc1)NC(=O)[C@@H](N)CC(=O)O [aspartame]

effect on the response of TAS2R44 to sucralose, in words ([2]; test compound at 25 μM): had no effect
effect on the response of TAS2R16 to phenyl-β-glucopyranoside, in words ([1]; test compound at 25 μM): did not effect the response
Compound: CC1CCC(CCCC(N)=O)C1(C)C (stereo not drawn) [test cpd B, 4-(2,2,3-trimethylcyclopentyl)butanamide]
response in cells not expressing TAS2R44 (negative control), in words ([3]; test compound at 25 μM): did not elicit a response

Compound: O=C1NS(=O)(=O)c2ccccc21 [Saccharin, saccharin]
signal in negative control, in words ([3]; host cells expressing only Gα16-gustducin44): did not show any significant change in signal
Neg. Control ΔF/F0 ([3]; saccharin 0.0391 mM): 0.016
Neg. Control ΔF/F0 ([3]; saccharin 0.0781 mM): 0.014
Neg. Control ΔF/F0 ([3]; saccharin 0.1563 mM): 0.014
Neg. Control ΔF/F0 ([3]; saccharin 0.3125 mM): 0.012
Neg. Control ΔF/F0 ([3]; saccharin 0.6250 mM): 0.014
Neg. Control ΔF/F0 ([3]; saccharin 1.2500 mM): 0.014
Neg. Control ΔF/F0 ([3]; saccharin 2.5000 mM): 0.013
Neg. Control ΔF/F0 ([3]; saccharin 5.0000 mM): 0.018
Neg. Control ΔF/F0 ([3]; saccharin 10.0000 mM): 0.020

Reference: patent US8187822B2, “Methods to identify modulators” (Givaudan S.A., priority 2007, dated 2012)
